Measured values from ChEMBL document CHEMBL3817819, “Development and application of ligand-based NMR screening assays for -butyrobetaine hydroxylase” (Medchemcomm, 2016).
The source made the active and inactive calls. The calls are words filed in the database; no cut-off is given here.

Tests used:
[1] = molecular target: T1, Gamma-butyrobetaine dioxygenase (Pseudomonas sp. (strain AK-1)) (UniProt P80193); assay: Inhibition of GBB binding to Pseudomonas sp. AK1 BBOX at 25 uM in presence of Mn2+ by 1H NMR GBB/2OG dual reporter displacement assay
T1 sequence (whole entry): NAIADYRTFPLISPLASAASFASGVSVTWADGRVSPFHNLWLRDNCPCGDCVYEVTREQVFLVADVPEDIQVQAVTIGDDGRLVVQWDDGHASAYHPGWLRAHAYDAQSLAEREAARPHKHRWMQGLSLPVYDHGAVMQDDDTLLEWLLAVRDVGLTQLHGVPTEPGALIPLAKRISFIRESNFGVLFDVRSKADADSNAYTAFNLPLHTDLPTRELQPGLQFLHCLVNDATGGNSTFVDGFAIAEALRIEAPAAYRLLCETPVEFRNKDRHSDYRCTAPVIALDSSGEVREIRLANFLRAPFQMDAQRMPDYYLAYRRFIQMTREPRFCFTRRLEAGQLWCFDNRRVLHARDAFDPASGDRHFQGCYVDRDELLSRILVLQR

[2] = molecular target: T2, Gamma-butyrobetaine dioxygenase (Pseudomonas sp. (strain AK-1), UniProt P80193); assay: Binding affinity to Pseudomonas sp. AK1 BBOX by intrinsic tryptophan fluorescence quenching assay
T2 sequence (P80193 whole entry): T1 sequence (whole entry)

[3] = molecular target: T2, Gamma-butyrobetaine dioxygenase; assay: Inhibition of Pseudomonas sp. AK1 BBOX using GBBF as substrate after 10 mins in presence of 2OG and Fe2+ using TBS-protected fluorescein probe by fluoride release assay
[4] = molecular target: T1, Gamma-butyrobetaine dioxygenase (Pseudomonas sp. (strain AK-1)); assay: Inhibition of 2OG binding to Pseudomonas sp. AK1 BBOX at 25 uM in presence of Mn2+ by 1H NMR GBB/2OG dual reporter displacement assay
[5] = molecular target: T2, Gamma-butyrobetaine dioxygenase; assay: Inhibition of Pseudomonas sp. AK1 BBOX assessed as hydroxylation of GBB to L-carnitine measured for 60 sec in presence of 2OG and Fe2+ by 1H NMR assay
[6] = molecular target: T3, Gamma-butyrobetaine dioxygenase (Homo sapiens, UniProt O75936); assay: Inhibition of human BBOX using GBBF as substrate in presence of 2OG and Fe2+ using TBS-protected fluorescein probe by fluoride release assay
T3 sequence (O75936 whole entry): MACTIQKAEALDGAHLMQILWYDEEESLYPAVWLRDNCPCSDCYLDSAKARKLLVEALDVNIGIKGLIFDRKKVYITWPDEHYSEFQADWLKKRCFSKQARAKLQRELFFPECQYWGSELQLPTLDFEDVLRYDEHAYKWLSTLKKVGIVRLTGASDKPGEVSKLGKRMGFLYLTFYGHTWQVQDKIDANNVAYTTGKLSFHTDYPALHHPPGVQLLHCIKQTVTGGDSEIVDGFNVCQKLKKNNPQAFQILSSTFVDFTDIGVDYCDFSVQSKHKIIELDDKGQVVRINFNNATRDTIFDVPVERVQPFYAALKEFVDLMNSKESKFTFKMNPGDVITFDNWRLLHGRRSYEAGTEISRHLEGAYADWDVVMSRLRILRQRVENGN

[7] = molecular target: T1, Gamma-butyrobetaine dioxygenase (Pseudomonas sp. (strain AK-1)); assay: Induction of GBB binding to Pseudomonas sp. AK1 BBOX at 25 uM in presence of Mn2+ by 1H NMR GBB/2OG dual reporter displacement assay

Row | Structure (SMILES) | inhibition [1] | Kd [2] | IC50 [3] | inhibition [4] | IC50 [5] | IC50 [6] | Activity [7]
1 | CC(C)[C@@H](NC(=O)c1nc(Cl)c2ccccc2c1O)C(=O)O | inactive | 144 µM | > 1000 µM | inactive | 191 µM | – | –
2 | O=C(N[C@@H](Cc1ccccc1)C(=O)O)c1nc(Cl)c2ccccc2c1O | Active | 26 µM | 13 µM | Active | 1 µM | – | –
3 | O=C(N[C@@H](Cc1c[nH]c2ccccc12)C(=O)O)c1nc(Cl)c2ccccc2c1O | Active | 29 µM | 26 µM | Active | 0.9 µM | 11 µM | –
4 | O=C(N[C@H](Cc1c[nH]c2ccccc12)C(=O)O)c1nc(Cl)c2ccccc2c1O | – | 168 µM | > 1000 µM | – | 18 µM | 33 µM | –
5 | O=C(N[C@H](Cc1ccccc1)C(=O)O)c1nc(Cl)c2ccccc2c1O | – | 82 µM | 101 µM | – | 38 µM | – | –

Second part, the molecule after the results:

Row | inhibition [1] | Kd [2] | IC50 [3] | inhibition [4] | IC50 [5] | IC50 [6] | Activity [7] | Structure (SMILES)
6 | inactive | 103 µM | > 1000 µM | inactive | 94 µM | – | – | CC(C)C[C@@H](NC(=O)c1nc(Cl)c2ccccc2c1O)C(=O)O
7 | inactive | 91 µM | 245 µM | Active | 76 µM | – | – | O=C(O)C[C@H](NC(=O)c1nc(Cl)c2ccccc2c1O)C(=O)O
8 | – | 64 µM | 147 µM | – | 22 µM | – | – | O=C(O)CC[C@H](NC(=O)c1nc(Cl)c2ccccc2c1O)C(=O)O
9 | inactive | 22 µM | 1.2 µM | Active | 0.21 µM | – | Active | O=C(O)CNC(=O)c1nc(Cl)c2ccccc2c1O
10 | Active | 55 µM | 130 µM | Active | 23 µM | – | – | CC(C)[C@H](NC(=O)c1nc(Cl)c2ccccc2c1O)C(=O)O
11 | – | 101 µM | 160 µM | – | 38 µM | – | – | O=C(O)C[C@@H](NC(=O)c1nc(Cl)c2ccccc2c1O)C(=O)O
12 | Active | 55 µM | 125 µM | Active | 26 µM | – | – | CC(C)C[C@H](NC(=O)c1nc(Cl)c2ccccc2c1O)C(=O)O
13 | inactive | 89 µM | > 1000 µM | inactive | 86 µM | – | – | O=C(O)CC[C@@H](NC(=O)c1nc(Cl)c2ccccc2c1O)C(=O)O
